Results on 72 compounds are retold here after the Kinase Knowledgebase extract (Sharma et al. 2016).

A word on the pIC50: it is the negative decadic logarithm of the IC50, by convention in mol/L.

pIC50: −log10 of the molar value.

Sequence of EGFR (human) (P00533 whole entry, looked up): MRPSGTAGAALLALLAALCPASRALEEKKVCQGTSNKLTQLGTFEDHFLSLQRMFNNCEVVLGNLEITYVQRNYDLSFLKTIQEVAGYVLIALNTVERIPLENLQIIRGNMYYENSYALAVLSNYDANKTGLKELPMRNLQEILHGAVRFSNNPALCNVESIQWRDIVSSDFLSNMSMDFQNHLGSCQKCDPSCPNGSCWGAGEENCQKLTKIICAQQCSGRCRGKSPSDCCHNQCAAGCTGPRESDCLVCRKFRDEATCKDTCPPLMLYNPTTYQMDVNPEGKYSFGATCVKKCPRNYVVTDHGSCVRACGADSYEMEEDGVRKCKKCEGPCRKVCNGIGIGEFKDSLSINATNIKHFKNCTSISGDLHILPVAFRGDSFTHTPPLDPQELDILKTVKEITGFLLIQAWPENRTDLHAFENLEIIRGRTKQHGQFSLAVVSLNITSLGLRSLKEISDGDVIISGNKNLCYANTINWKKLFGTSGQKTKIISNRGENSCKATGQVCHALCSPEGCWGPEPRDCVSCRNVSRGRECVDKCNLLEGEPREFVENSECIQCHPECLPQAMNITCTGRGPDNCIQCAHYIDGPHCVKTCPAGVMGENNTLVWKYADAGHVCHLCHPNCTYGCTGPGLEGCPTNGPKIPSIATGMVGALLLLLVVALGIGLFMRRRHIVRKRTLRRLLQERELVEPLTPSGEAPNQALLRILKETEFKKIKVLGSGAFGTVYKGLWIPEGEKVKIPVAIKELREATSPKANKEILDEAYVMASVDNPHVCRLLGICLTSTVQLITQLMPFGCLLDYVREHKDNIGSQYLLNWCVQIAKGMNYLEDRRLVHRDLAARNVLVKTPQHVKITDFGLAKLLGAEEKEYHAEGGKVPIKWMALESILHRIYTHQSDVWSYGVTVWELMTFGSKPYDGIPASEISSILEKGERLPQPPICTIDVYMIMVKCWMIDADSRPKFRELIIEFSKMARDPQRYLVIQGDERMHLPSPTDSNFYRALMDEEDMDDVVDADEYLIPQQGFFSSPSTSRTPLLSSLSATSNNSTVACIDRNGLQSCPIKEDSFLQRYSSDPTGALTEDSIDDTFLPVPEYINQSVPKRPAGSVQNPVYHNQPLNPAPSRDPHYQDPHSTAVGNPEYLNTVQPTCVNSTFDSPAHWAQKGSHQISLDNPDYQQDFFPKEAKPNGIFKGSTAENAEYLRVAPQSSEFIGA

This experiment concerns the target EGFR (human) (UniProt P00533).
Regarding `OC1CCC(NCC(O)Cn2ccc(-c3ccc4ncnc(Nc5ccc(OCc6cccc(F)c6)c(Cl)c5)c4c3)c2)CC1` (configuration not stated), the negative logarithm of the IC50 (pIC50) was 7.31.
The result for `O=S1(=O)CCC(O)(CNCc2cn(-c3ccc4ncnc(Nc5ccc(F)c(Cl)c5)c4c3)cc2CCO)CC1` reads 7.12; that for `Fc1cccc(COc2ccc(Nc3ncnc4ccc(-n5cc(CN6CCCCC6)c(CN6CCCCC6)c5)cc34)cc2Cl)c1`, 6.54; that for `Fc1cccc(COc2ccc(Nc3ncnc4ccc(-n5cc(CNCCN6CCOCC6)c(C(F)(F)F)c5)cc34)cc2Cl)c1`, 7.49.
As for `O=C(c1cn(-c2ccc3ncnc(Nc4ccc(OCc5ccccn5)c(Cl)c4)c3c2)cc1CCO)N1CCCCC1`, the figure is 7.02; as for `CN(C)CC=CC(=O)Nc1cn(-c2ccc3ncnc(Nc4ccc(OCc5cccc(F)c5)c(Cl)c4)c3c2)cc1C(F)(F)F`, 6.56.
The result for `OC(CN1CCNCC1)Cn1ccc(-c2ccc3ncnc(Nc4ccc(OCc5cccc(F)c5)c(Cl)c4)c3c2)c1` (configuration not stated) reads 7.52; that for `CN(C)Cc1cn(-c2ccc3ncnc(Nc4ccc(OCc5cccc(F)c5)c(Cl)c4)c3c2)cc1CCO`, 7.41; that for `Fc1cccc(COc2ccc(Nc3ncnc4ccc(-c5ccn(C[C@H]6CCNC6)c5)cc34)cc2Cl)c1`, 6.20.
Consider `CCN(CC)Cc1cn(-c2ccc3ncnc(Nc4ccc(OCc5cccc(F)c5)c(Cl)c4)c3c2)cc1CCO`, for which the pIC50 is 7.43.
The result for `O=C(Cn1ccc(-c2ccc3ncnc(Nc4ccc(OCc5cccc(F)c5)c(Cl)c4)c3c2)c1)N1CCCCC1` reads 7.18.
In turn, `OCCc1cn(-c2ccc3ncnc(Nc4ccc(OCc5ccccn5)c(Cl)c4)c3c2)cc1CN1CCOCC1` had a pIC50 of 7.66.
Compound `CN(C)Cc1cn(-c2ccc3ncnc(Nc4ccc(OCc5cccc(F)c5)c(Cl)c4)c3c2)cc1CN(C)C` had a pIC50 of 7.25.
For `CS(=O)(=O)CCNC(=O)c1cc(-c2ccc3ncnc(Nc4ccc(OCc5cccc(F)c5)c(Cl)c4)c3c2)c[nH]1`, the negative logarithm of the IC50 (pIC50) is 7.62.
Take `CN1CCN(C(=O)c2cn(-c3ccc4ncnc(Nc5ccc6c(cnn6Cc6ccc(F)cc6)c5)c4c3)cc2CCO)CC1`: the pIC50 is 7.21.
`CCOC(=O)c1cn(-c2ccc3ncnc(Nc4ccc(OCc5cccc(F)c5)c(Cl)c4)c3c2)cc1C(F)(F)F` had a pIC50 of 7.51.
On to `Fc1cccc(COc2ccc(Nc3ncnc4ccc(-c5c[nH]c(CNCCN6CCOCC6)c5)cc34)cc2Cl)c1`, for which the pIC50 is 6.99.
Take `CC(C)(C)OC(=O)n1cccc1-c1ccc2ncnc(Nc3ccc(OCc4cccc(F)c4)c(Cl)c3)c2c1`: the pIC50 is 7.55.
For `CS(=O)(=O)CCNCc1cn(-c2ccc3ncnc(Nc4ccc(OCc5cccc(F)c5)c(Cl)c4)c3c2)cc1CCO`, the negative-log IC50 (pIC50) was 7.96.
Consider `CS(=O)(=O)CCNCc1cn(-c2ccc3ncnc(Nc4ccc(F)c(Cl)c4)c3c2)cc1CCO`, for which the negative-log IC50 (pIC50) is 7.19.
The result for `O=S1(=O)CCC(CNCc2cn(-c3ccc4ncnc(Nc5ccc(OCc6cccc(F)c6)c(Cl)c5)c4c3)cc2CCO)CC1` reads 7.62; that for `Fc1cccc(COc2ccc(Nc3ncnc4ccc(-n5cc(CN6CCOCC6)c(CN6CCOCC6)c5)cc34)cc2Cl)c1`, 6.42.
In turn, `CCN(CC)Cc1cn(-c2ccc3ncnc(Nc4ccc(OCc5cccc(F)c5)c(Cl)c4)c3c2)cc1CN(CC)CC` had a negative-log IC50 (pIC50) of 6.90.
In turn, `CS(=O)(=O)n1ccc(-c2ccc3ncnc(Nc4ccc(OCc5cccc(F)c5)c(Cl)c4)c3c2)c1` gave a negative-log IC50 (pIC50) of 7.85.
In turn, `C=C(C)C(=O)Nc1cn(-c2ccc3ncnc(Nc4ccc(OCc5cccc(F)c5)c(Cl)c4)c3c2)cc1C(F)(F)F` gave a pIC50 of 8.30.
For the compound `CS(=O)(=O)CCNCC(O)Cn1ccc(-c2ccc3ncnc(Nc4ccc(OCc5cccc(F)c5)c(Cl)c4)c3c2)c1` (configuration not stated), the pIC50 was 7.77.
Compound `CCN(CC)C(=O)Cn1ccc(-c2ccc3ncnc(Nc4ccc(OCc5cccc(F)c5)c(Cl)c4)c3c2)c1` had a negative logarithm of the IC50 (pIC50) of 6.85.
As for `COCCc1cn(-c2ccc3ncnc(Nc4ccc(OCc5cccc(F)c5)c(Cl)c4)c3c2)cc1C(=O)N1CCOCC1`, the pIC50 is 7.14.
The compound `O=S1(=O)CCC(CNCC(O)Cn2ccc(-c3ccc4ncnc(Nc5ccc(OCc6cccc(F)c6)c(Cl)c5)c4c3)c2)CC1` (configuration not stated) showed a negative-log IC50 (pIC50) of 7.38.
`O=C(NCCN1CCCC1)c1cn(-c2ccc3ncnc(Nc4ccc5c(cnn5Cc5ccc(F)cc5)c4)c3c2)cc1CCO` had a pIC50 of 7.80.
`O[C@@H](CNCc1cn(-c2ccc3ncnc(Nc4ccc(OCc5cccc(F)c5)c(Cl)c4)c3c2)cc1C(F)(F)F)CN1CCOCC1` had a pIC50 of 7.04.
As for `CS(=O)(=O)CCNCc1cn(-c2ccc3ncnc(Nc4ccc5c(cnn5Cc5cccc(F)c5)c4)c3c2)cc1CCO`, the pIC50 is 7.60.
`CC(C)(C)OC(=O)N1CCC(NCc2cc(-c3ccc4ncnc(Nc5ccc(OCc6cccc(F)c6)c(Cl)c5)c4c3)c[nH]2)CC1` gave a pIC50 of 6.33.
`CCN(CC)CCNC(=O)c1cn(-c2ccc3ncnc(Nc4ccc5c(cnn5Cc5ccc(F)cc5)c4)c3c2)cc1CCO` gave a negative-log IC50 (pIC50) of 6.81.
For the compound `CN1CCN(Cc2cn(-c3ccc4ncnc(Nc5ccc(OCc6cccc(F)c6)c(Cl)c5)c4c3)cc2CCO)CC1`, the negative-log IC50 (pIC50) is 7.38.
As to `O=C(NCCN1CCCCC1)c1cn(-c2ccc3ncnc(Nc4ccc5c(cnn5Cc5ccc(F)cc5)c4)c3c2)cc1CCO`, the negative logarithm of the IC50 (pIC50) is 7.64.
In the case of `O=S1(=O)CCC(O)(CNCc2cn(-c3ccc4ncnc(Nc5ccc(OCc6cccc(F)c6)c(Cl)c5)c4c3)cc2C(F)(F)F)CC1`, the pIC50 was 7.80.
Take `Fc1cccc(COc2ccc(Nc3ncnc4ccc(-c5ccn(CCN6CCNCC6)c5)cc34)cc2Cl)c1`: the pIC50 was 8.70.
As to `O=S1(=O)CCC(O)(CNCc2cn(-c3ccc4ncnc(Nc5ccc(OCc6cccc(F)c6)c(Cl)c5)c4c3)cc2CCO)CC1`, the negative logarithm of the IC50 (pIC50) was 7.72.
In turn, `O=C(NCCCN1CCOCC1)c1cn(-c2ccc3ncnc(Nc4ccc(OCc5ccccn5)c(Cl)c4)c3c2)cc1CCO` gave a negative logarithm of the IC50 (pIC50) of 7.02.
`OC(CNCCN1CCCCC1)Cn1ccc(-c2ccc3ncnc(Nc4ccc(OCc5cccc(F)c5)c(Cl)c4)c3c2)c1` (configuration not stated) gave a pIC50 of 7.04.
Compound `Fc1cccc(COc2ccc(Nc3ncnc4ccc(-n5cc(CNCCN6CCCCC6)c(C(F)(F)F)c5)cc34)cc2Cl)c1` showed a negative-log IC50 (pIC50) of 8.00.
Take `Fc1ccc(Nc2ncnc3ccc(-c4cc[nH]c4)cc23)cc1Cl`: the pIC50 is 7.33.
On to `O=C(NCCN1CCCCC1)c1cn(-c2ccc3ncnc(Nc4ccc(OCc5cccc(F)c5)c(Cl)c4)c3c2)cc1CCO`, for which the negative-log IC50 (pIC50) was 8.10.
`Fc1cccc(COc2ccc(Nc3ncnc4ccc(-c5c[nH]c(CNCCCN6CCOCC6)c5)cc34)cc2Cl)c1` showed a pIC50 of 6.71.
With `OC(CN1CCOCC1)Cn1ccc(-c2ccc3ncnc(Nc4ccc(OCc5cccc(F)c5)c(Cl)c4)c3c2)c1` (configuration not stated), the pIC50 is 7.92.
In turn, `O=C(c1cn(-c2ccc3ncnc(Nc4ccc(OCc5cccc(F)c5)c(Cl)c4)c3c2)cc1CCN1CCOCC1)N1CCOCC1` gave a pIC50 of 7.60.
In turn, `Fc1cccc(COc2ccc(Nc3ncnc4ccc(-c5ccn(CCN6CCOCC6)c5)cc34)cc2Cl)c1` gave a pIC50 of 7.40.
As for `COCCNCc1cc(-c2ccc3ncnc(Nc4ccc(OCc5cccc(F)c5)c(Cl)c4)c3c2)c[nH]1`, the figure is 7.51; as for `CS(=O)(=O)CCNCc1cn(-c2ccc3ncnc(Nc4ccc(OCc5ccccn5)c(Cl)c4)c3c2)cc1CCO`, 7.80.
`COCCNCC(O)Cn1ccc(-c2ccc3ncnc(Nc4ccc(OCc5cccc(F)c5)c(Cl)c4)c3c2)c1` (configuration not stated): the pIC50 is 7.96.
As to `O=C(Cn1ccc(-c2ccc3ncnc(Nc4ccc(OCc5cccc(F)c5)c(Cl)c4)c3c2)c1)NC1CCNCC1`, the pIC50 is 7.47.
As for `O=S1(=O)CCC(CNCc2cn(-c3ccc4ncnc(Nc5ccc(F)c(Cl)c5)c4c3)cc2CCO)CC1`, the figure is 6.90; as for `CCN(CC)CCNCc1cn(-c2ccc3ncnc(Nc4ccc(OCc5cccc(F)c5)c(Cl)c4)c3c2)cc1C(F)(F)F`, 7.28.
With `O=C(c1cn(-c2ccc3ncnc(Nc4ccc5c(cnn5Cc5ccc(F)cc5)c4)c3c2)cc1CCO)N1CCOCC1`, the pIC50 was 7.30.
In turn, `O=C(NCCCN1CCOCC1)c1cn(-c2ccc3ncnc(Nc4ccc5c(cnn5Cc5ccc(F)cc5)c4)c3c2)cc1CCO` showed a negative-log IC50 (pIC50) of 6.94.
The result for `Fc1cccc(Cn2ncc3cc(Nc4ncnc5ccc(-c6cc[nH]c6)cc45)ccc32)c1` reads 8.52; that for `CCN(CC)CCc1cn(-c2ccc3ncnc(Nc4ccc(OCc5cccc(F)c5)c(Cl)c4)c3c2)cc1C(=O)N1CCOCC1`, 7.82.
The compound `OCCc1cn(-c2ccc3ncnc(Nc4ccc(OCc5cccc(F)c5)c(Cl)c4)c3c2)cc1CNCCN1CCOCC1` showed a pIC50 of 7.15.
As for `O=C(c1cn(-c2ccc3ncnc(Nc4ccc(OCc5ccccn5)c(Cl)c4)c3c2)cc1CCO)N1CCCC1`, the pIC50 is 7.52.
The compound `O=C(Cn1ccc(-c2ccc3ncnc(Nc4ccc(OCc5cccc(F)c5)c(Cl)c4)c3c2)c1)NC1CC1` showed a pIC50 of 7.89.
`O=S1(=O)CCC(CNCc2cn(-c3ccc4ncnc(Nc5ccc6c(cnn6Cc6cccc(F)c6)c5)c4c3)cc2CCO)CC1` had a negative-log IC50 (pIC50) of 7.92.
With `CCN(CC)Cc1cn(-c2ccc3ncnc(Nc4ccc(OCc5ccccn5)c(Cl)c4)c3c2)cc1CCO`, the pIC50 is 7.68.
Regarding `OC1(Cn2ccc(-c3ccc4ncnc(Nc5ccc(OCc6cccc(F)c6)c(Cl)c5)c4c3)c2)CCNCC1`, the pIC50 was 7.92.
In turn, `O=C(c1cn(-c2ccc3ncnc(Nc4ccc(OCc5ccccn5)c(Cl)c4)c3c2)cc1CCO)N1CCC(N2CCCCC2)CC1` gave a negative-log IC50 (pIC50) of 6.98.
Regarding `CN(C)CCc1cn(-c2ccc3ncnc(Nc4ccc(OCc5cccc(F)c5)c(Cl)c4)c3c2)cc1C(=O)N1CCOCC1`, the pIC50 is 7.24.
Turning to `CN(C)Cc1cn(-c2ccc3ncnc(Nc4ccc5c(cnn5Cc5cccc(F)c5)c4)c3c2)cc1CCO`, the pIC50 is 7.82.
Regarding `OCC1CCCN1CCn1ccc(-c2ccc3ncnc(Nc4ccc(OCc5cccc(F)c5)c(Cl)c4)c3c2)c1` (configuration not stated), the pIC50 is 7.22.
Turning to `CS(=O)(=O)CCNCc1cc(-c2ccc3ncnc(Nc4ccc5c(cnn5Cc5cccc(F)c5)c4)c3c2)c[nH]1`, the pIC50 is 8.40.
The result for `Fc1cccc(COc2ccc(Nc3ncnc4ccc(-c5ccn(CCOC6CCCCO6)c5)cc34)cc2Cl)c1` (configuration not stated) reads 6.88.
Compound `O=C1CCc2cn(-c3ccc4ncnc(Nc5ccc(OCc6cccc(F)c6)c(Cl)c5)c4c3)cc21` showed a pIC50 of 8.70.
As for `CCN(CC)CCON=C1CCc2cn(-c3ccc4ncnc(Nc5ccc(OCc6cccc(F)c6)c(Cl)c5)c4c3)cc21`, the pIC50 was 7.14.
